Where a name gives a salt, the structure may show the parent alone.
Assays:
[1] = system: c-Kit; format: in vivo, rat; details: rats, 1 h after acute morphine 10 mg/kg s.c., compared with normal rats
Experimental: (§1) After 1 h, anesthesia and perfusion were performed, a brain tissue was fixed with a 4% paraformaldehyde solution, dehydrated in alcohol solutions with different concentrations, hyalinized in xylene, embedded in paraffin, and then cut into 3 μm-thick sections. Tissues were deparaffinized, boiled in 0.01M sodium citrate buffer (pH 6.0) for 10-15 min, and cooled in cold water to room temperature.

[2] = system: c-Kit; format: in vivo, rat
Experimental: Under the guidance of NIR-II fluorescence imaging, dynamic changes of the brain regions of the rats were dynamically monitored and photographed at 2 h, 6 h, 8 h and 12 h with a near-infrared II region imaging camera, respectively, so as to indicate changes in a phosphorylation level of c-Kit protein.

[3] = target: T1, c-Kit (Rattus norvegicus, UniProt F7EWK5); format: in vivo; details: rats, imatinib mesylate 30 mg/kg i.p. 30 min before morphine or saline
T1 construct: from tissue; host or cells: rat brain (nucleus accumbens, prefrontal cortex, hippocampus and other regions)
Experimental: as §1

[4] = system: morphine CPP; test: Formation of morphine conditioned place preference (CPP) in mice; format: in vivo; details: imatinib mesylate 45 mg/kg i.p. 30 min before morphine 15 mg/kg s.c., test day 10
[5] = system: high-sugar and high-fat food CPP; test: Formation of conditioned place preference on high-sugar and high-fat food in rats; format: in vivo, rat; details: imatinib mesylate 1, 5, 10, 20 and 30 mg/kg i.p.
[6] = system: high-sugar and high-fat food CPP; test: High-sugar and high-fat food CPP after environmental or unconditioned re-exposure, nucleus accumbens microinjection; format: in vivo, rat; details: rats
[7] = target: T1, c-Kit; format: in vivo; details: gambling rats, imatinib mesylate 30 mg/kg
[8] = system: gambling behavior; test: Rat gambling behavior model (rGT), Example 9; format: in vivo; details: rats, imatinib mesylate 30 mg/kg
Experimental: A gambling behavior model of rats was established: animals were first accustomed to the operating chambers twice a day for 30 min each time, during which sucrose granules were placed on the reaction wells and the food banks. Animals were then trained to poke their noses into one of the luminescent reaction wells within 10 s to obtain a reward. Space positions of the stimulus light were varied in different experiments of wells 1, 2, 4 and 5. Each session consisted of 100 trials lasting approximately 30 min. After 5 trials, animals continued to complete 100 trials. Animals were then trained 7 times for forced-choice rGT (or an rGT variant of the control group), followed by a completely free-choice task, ensuring that all animals had the same experience in the four reinforcement conditions and were designed to prevent simple prejudice against specific wells. The percentage of animals selected for a particular option trial was calculated according to the formula […].

[9] = system: gambling behavior; test: Dose effect on gambling behavior in rats under gambling task (rGT) conditions; format: in vivo, rat
Experimental: A gambling behavior model of rats was established: firstly, the animals were acclimated to the operating chamber twice a day for 30 min each time, during which sucrose granules were placed on the reaction wells and the food bank. After acclimation, animals were trained to poke their noses into one of the luminescent reaction wells within 10 s to obtain a reward. Spatial positions of the stimulus light would appear in different wells of wells 1, 2, 4 and 5 in different experiments. Each session consisted of 100 trials lasting approximately 30 min. Animals were then trained 7 times for forced-choice rGT (or an rGT variant of the control group), and then underwent a completely free-choice task. This ensured that all animals had the same experience under the four reinforcement conditions and were designed to prevent simple prejudice against specific wells. The percentage of trials in which animals chose a particular option was calculated according to the formula in reference: Choices of a particular option/Total choices of 100 (Di C P, Manvich D F, Pushparaj A, et al. Effects of disulfiram on choice behavior in a rodent gambling task: association with catecholamine levels[J]. Psychopharmacology, 2018, 235(1):23-35). Each experiment lasted 30 min and experimental subjects responded with a nose poke on the illuminated food bank, which turned off the tray light and triggered the initiation of a 5-s intertrial interval (ITT). At the end of the ITI, wells 1, 2, 4 and 5 were illuminated for 10 s (in the forced-choice version of the task used in the training, only one well was illuminated).
Explanation to the above table: four wells in the experimental apparatus were respectively provided with different reward probability and penalty probability, as well as corresponding reward sucrose amount and penalty time.
After training, the rats were given with drugs. […] The rats in the direct administration group were directly given with imatinib (1, 5, 10, 20 and 30 mg/kg, ip) or saline (1 mL/kg, ip) without being placed in the experimental device. […]

[10] = system: morphine CPP; details: mice
[11] = system: high-sugar and high-fat food CPP; test: High-sugar and high-fat food CPP after environmental or unconditioned re-exposure, intraperitoneal administration; details: rats
[12] = rats exposed to the environment, 10, 20 and 30 mg/kg ip, compared to control group

T1 sequence (F7EWK5 26-978): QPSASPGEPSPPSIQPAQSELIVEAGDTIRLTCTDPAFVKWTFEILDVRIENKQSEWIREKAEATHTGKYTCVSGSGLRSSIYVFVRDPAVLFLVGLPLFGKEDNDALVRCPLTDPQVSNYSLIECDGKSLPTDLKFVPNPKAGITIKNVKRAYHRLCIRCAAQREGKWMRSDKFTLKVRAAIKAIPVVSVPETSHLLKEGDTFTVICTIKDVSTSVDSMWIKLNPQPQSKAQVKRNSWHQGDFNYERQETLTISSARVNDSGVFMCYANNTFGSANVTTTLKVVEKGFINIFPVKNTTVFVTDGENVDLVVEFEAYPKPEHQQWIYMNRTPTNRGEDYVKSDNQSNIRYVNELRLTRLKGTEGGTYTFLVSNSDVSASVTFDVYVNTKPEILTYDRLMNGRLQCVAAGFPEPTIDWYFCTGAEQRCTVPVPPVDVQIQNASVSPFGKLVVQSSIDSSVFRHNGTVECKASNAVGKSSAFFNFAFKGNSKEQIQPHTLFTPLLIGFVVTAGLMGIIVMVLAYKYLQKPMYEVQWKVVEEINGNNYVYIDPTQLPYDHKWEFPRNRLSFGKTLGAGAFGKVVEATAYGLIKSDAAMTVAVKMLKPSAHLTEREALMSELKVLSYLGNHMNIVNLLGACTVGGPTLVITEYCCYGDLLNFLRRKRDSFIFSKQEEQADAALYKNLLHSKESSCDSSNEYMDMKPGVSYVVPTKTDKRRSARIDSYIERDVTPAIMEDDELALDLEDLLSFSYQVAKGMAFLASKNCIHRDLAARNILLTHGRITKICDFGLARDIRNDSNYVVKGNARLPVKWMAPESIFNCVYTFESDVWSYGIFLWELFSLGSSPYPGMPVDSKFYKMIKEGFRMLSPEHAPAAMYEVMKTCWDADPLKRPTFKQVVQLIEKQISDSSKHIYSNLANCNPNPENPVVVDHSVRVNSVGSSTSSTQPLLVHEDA

Structure (SMILES)	phosphorylation level of c-Kit protein in nucleus accumbens regions [1]	phosphorylation level of c-Kit protein in prefrontal cortex, hippocampus and other regions [1]	time at which enrichment intensity of the probes reached a peak ([2]; rats after acute morphine administration)	phosphorylation activity of c-Kit in the brains of the rats (brain brightness) ([2]; rats, acute morphine 10 mg/kg s.c., contrast with normal saline group)	phosphorylation activity of c-Kit protein in nucleus accumbens, prefrontal cortex and hippocampus [3]	formation of conditioned place preference (CPP score) [4]	formation of conditioned place preference on high-sugar and high-fat food [5]	food-seeking behavior caused by the environment and food ([6]; nucleus accumbens microinjection 4 μg/0.5 μL)	ignition of CPP ([6]; nucleus accumbens microinjection, after 2 weeks)	phosphorylation level of c-Kit [7]	gambling behavior [8]	effect on gambling choice in rGT ([9]; rats as directly administered, any dose (1-30 mg/kg ip))	choice at P4 in rGT [9, 12]	optimal choice at P2 in rGT [9, 12]	CPP Score after re-exposure to environmental cues ([10]; imatinib mesylate 45 mg/kg i.p. 30 min before re-exposure)	ignition of morphine CPP ([10]; small dose of morphine 5 mg/kg i.p., after 1 week)	ignition of CPP ([11]; i.p. administration, small amount of high-sugar and high-fat food, after 2 weeks)	food-seeking behaviors induced by environment and food ([11]; imatinib mesylate 1, 5, 10, 20 and 30 mg/kg i.p. after re-exposure)
CN1CC[C@]23c4c5ccc(O)c4O[C@H]2[C@@H](O)C=C[C@H]3[C@H]1C5 [morphine]	significantly increased	no significant change	6 h	significantly enhance	–	–	–	–	–	–	–	–	–	–	–	–	–	–
Cc1ccc(NC(=O)c2ccc(CN3CCN(C)CC3)cc2)cc1Nc1nccc(-c2cccnc2)n1 [imatinib mesylate]	–	–	–	–	significantly decreased	could not be formed normally	inhibited	inhibited	not ignited	significantly inhibited	significantly eliminated	no significant effect	reduced	significantly increased	significantly reduced	not ignited	not ignited	inhibited
